The source of these data is ChEMBL document CHEMBL2203286, “Synthesis and structure-activity relationship studies of cytotoxic vinorelbine amide analogues” (Bioorg Med Chem Lett, 2012).

What is called IC50 is the concentration needed to halve the response being measured.

Data set [1] relates to A549. The data set can be described thus: Cytotoxicity against human A549 cells after 24 to 72 hrs by MTT assay. It counts as functional, cell-based. (Tetrazolium assays rely on reduction of a dye to a coloured formazan, in cell work by metabolically active cells.)
The test system of data set [2] is A549. The data set can be described thus: Antitumor activity against human A549 cells xenografted in BALB/cA nude mouse assessed as growth inhibition at 9 mg/kg, iv once every seven days for three doses relative to control. Particulars: read-out: GI. On the technique in general: Xenograft models place foreign cells or tissue in a host animal.
Data set [3] deals with Mus musculus. The data set can be described thus: Toxicity in BALB/cA nude mouse xenografted with human A549 cells assessed as change in body weight at 9 mg/kg, iv once every seven days for three doses (reference value: 27.61 g). The settings on record: in vivo.
Data set [4] has as its system Mus musculus. The data set can be described thus: Toxicity in BALB/cA nude mouse xenografted with human A549 cells assessed as mortality at 9 mg/kg, iv […]. Set-up: dose 9 mg/kg, route intravenous. It counts as organism-based. The settings on record: in vivo.
In data set [5] the test system is A549. The data set can be described thus: Ratio of navelbine IC50 to compound IC50 for human A549 cells. It counts as functional.

As for `CCC1=C[C@@H]2CN(C1)Cc1c([nH]c3ccccc13)[C@@](C(=O)OC)(c1cc3c(cc1OC)N(C)[C@H]1[C@@](O)(CNC(=O)c4ccccc4F)[C@H](OC(C)=O)[C@]4(CC)C=CCN5CC[C@]31[C@@H]54)C2`, the IC50 in the data set on A549 [1] was 0.0073 µM.
Same read-out and setting: to `CCC1=C[C@@H]2CN(C1)Cc1c([nH]c3ccccc13)[C@@](C(=O)OC)(c1cc3c(cc1OC)N(C)[C@H]1[C@@](O)(CNC(=O)CC(C)C)[C@H](OC(C)=O)[C@]4(CC)C=CCN5CC[C@]31[C@@H]54)C2` belongs 0.022 µM.
Same read-out and setting: to `CCC1=C[C@@H]2CN(C1)Cc1c([nH]c3ccccc13)[C@@](C(=O)OC)(c1cc3c(cc1OC)N(C)[C@H]1[C@@](O)(CNC(=O)c4c(F)cccc4F)[C@H](OC(C)=O)[C@]4(CC)C=CCN5CC[C@]31[C@@H]54)C2` belongs 0.0079 µM.
Still for that read-out and setting: to `CCC(=O)NC[C@@]1(O)[C@H](OC(=O)CC)[C@]2(CC)C=CCN3CC[C@@]4(c5cc([C@@]6(C(=O)OC)C[C@@H]7C=C(CC)CN(Cc8c6[nH]c6ccccc86)C7)c(OC)cc5N(C)[C@@H]14)[C@@H]32` belongs 0.012 µM.
On to `CCC1=C[C@@H]2CN(C1)Cc1c([nH]c3ccccc13)[C@@](C(=O)OC)(c1cc3c(cc1OC)N(C)[C@H]1[C@@](O)(CNC(=O)C(C)(C)C)[C@H](OC(C)=O)[C@]4(CC)C=CCN5CC[C@]31[C@@H]54)C2`, for which, in the data set on A549 [1], the IC50 was 0.037 µM.
For the compound `CCC1=C[C@@H]2CN(C1)Cc1c([nH]c3ccccc13)[C@@](C(=O)OC)(c1cc3c(cc1OC)N(C)[C@H]1[C@@](O)(CNC(=O)Cc4ccccc4)[C@H](OC(C)=O)[C@]4(CC)C=CCN5CC[C@]31[C@@H]54)C2`, the IC50 with A549 [1] stood at 0.0162 µM.
On the same count and under the same terms, to `CCC(=O)NC[C@@]1(O)[C@H](OC(C)=O)[C@]2(CC)C=CCN3CC[C@@]4(c5cc([C@@]6(C(=O)OC)C[C@@H]7C=C(CC)CN(Cc8c6[nH]c6ccccc86)C7)c(OC)cc5N(C)[C@@H]14)[C@@H]32` belongs 0.0156 µM.
On the same count and under the same terms, with `CCC1=C[C@@H]2CN(C1)Cc1c([nH]c3ccccc13)[C@@](C(=O)OC)(c1cc3c(cc1OC)N(C)[C@H]1[C@@](O)(CNC(=O)c4ccncc4)[C@H](OC(C)=O)[C@]4(CC)C=CCN5CC[C@]31[C@@H]54)C2` the figure was 0.0081 µM.
Regarding `CCC1=C[C@@H]2CN(C1)Cc1c([nH]c3ccccc13)[C@@](C(=O)OC)(c1cc3c(cc1OC)N(C)[C@H]1[C@@](O)(CNC(=O)c4cccc(C)c4)[C@H](OC(C)=O)[C@]4(CC)C=CCN5CC[C@]31[C@@H]54)C2`, the IC50 in the data set on A549 [1] is 0.0172 µM.
For `CCC1=C[C@@H]2CN(C1)Cc1c([nH]c3ccccc13)[C@@](C(=O)OC)(c1cc3c(cc1OC)N(C)[C@H]1[C@@](O)(CNC(=O)c4ccc(C)cc4)[C@H](OC(C)=O)[C@]4(CC)C=CCN5CC[C@]31[C@@H]54)C2`, in the data set on A549 [1], the IC50 came out at 0.0153 µM.
With `CCC1=C[C@@H]2CN(C1)Cc1c([nH]c3ccccc13)[C@@](C(=O)OC)(c1cc3c(cc1OC)N(C)[C@H]1[C@@](O)(CNC(=O)c4ccccc4)[C@H](OC(C)=O)[C@]4(CC)C=CCN5CC[C@]31[C@@H]54)C2.O=C(O)C(O)C(O)C(=O)O`, the inhibition in vivo at 9 mg/kg in the data set on A549 [2] amounted to 43.5%. The compound further came in with an IC50 in the data set on A549 [1] of 0.005 µM. For the same compound, the results for the Activity with Mus musculus [3] and in the data set with Mus musculus [4] were 24.6 g and “Non-toxic”, respectively.
In the case of `CCC1=C[C@@H]2CN(C1)Cc1c([nH]c3ccccc13)[C@@](C(=O)OC)(c1cc3c(cc1OC)N(C)[C@H]1[C@@](O)(CNC(=O)c4ccc(C(F)(F)F)cc4)[C@H](OC(C)=O)[C@]4(CC)C=CCN5CC[C@]31[C@@H]54)C2`, in the data set with A549 [1], 0.0207 µM corresponded to half-maximal inhibition (IC50).
The same measure, in the same setting: with `CCC1=C[C@@H]2CN(C1)Cc1c([nH]c3ccccc13)[C@@](C(=O)OC)(c1cc3c(cc1OC)N(C)[C@H]1[C@@](O)(CNC(=O)c4cccc(OC)c4)[C@H](OC(C)=O)[C@]4(CC)C=CCN5CC[C@]31[C@@H]54)C2` the figure was 0.0063 µM.
Regarding `CCC1=C[C@@H]2CN(C1)Cc1c([nH]c3ccccc13)[C@@](C(=O)OC)(c1cc3c(cc1OC)N(C)[C@H]1[C@@](O)(CNC(=O)c4ccco4)[C@H](OC(C)=O)[C@]4(CC)C=CCN5CC[C@]31[C@@H]54)C2.O=C(O)C(O)C(O)C(=O)O`, the inhibition in vivo at 9 mg/kg in the data set with A549 [2] came to 58%. Besides, the IC50 with A549 [1] came out at 0.0032 µM. For the same compound, the Activity in the data set with Mus musculus [3] worked out at 25.45 g.
Consider `CCC1=C[C@@H]2CN(C1)Cc1c([nH]c3ccccc13)[C@@](C(=O)OC)(c1cc3c(cc1OC)N(C)[C@H]1[C@@](O)(CNC(=O)C4CC4)[C@H](OC(C)=O)[C@]4(CC)C=CCN5CC[C@]31[C@@H]54)C2.O=C(O)C(O)C(O)C(=O)O`, for which the inhibition in vivo at 9 mg/kg with A549 [2] is 18%. In addition, the “Ratio IC50” value in the data set with A549 [5] was 3. In the data set with A549 [1], this compound showed an IC50 of 0.003 µM. Further, the Activity is on record as 26.53 g in the data set on Mus musculus [3] and “Non-toxic” in the data set on Mus musculus [4].
Compound `CCC1=C[C@@H]2CN(C1)Cc1c([nH]c3ccccc13)[C@@](C(=O)OC)(c1cc3c(cc1OC)N(C)[C@H]1[C@@](O)(CNC(=O)C(C)C)[C@H](OC(C)=O)[C@]4(CC)C=CCN5CC[C@]31[C@@H]54)C2` showed an IC50 in the data set with A549 [1] of 0.0114 µM.
Same read-out and setting: with `CCC1=C[C@@H]2CN(C1)Cc1c([nH]c3ccccc13)[C@@](C(=O)OC)(c1cc3c(cc1OC)N(C)[C@H]1[C@@](O)(CNC(=O)c4ccc([N+](=O)[O-])cc4)[C@H](OC(C)=O)[C@]4(CC)C=CCN5CC[C@]31[C@@H]54)C2` the figure was 0.0411 µM.
Same read-out and setting: with `CCC1=C[C@@H]2CN(C1)Cc1c([nH]c3ccccc13)[C@@](C(=O)OC)(c1cc3c(cc1OC)N(C)[C@H]1[C@@](O)(CNC(=O)c4ccc(Cl)cc4)[C@H](OC(C)=O)[C@]4(CC)C=CCN5CC[C@]31[C@@H]54)C2` the figure was 0.0256 µM.
The same measure, in the same setting: with `CCC1=C[C@@H]2CN(C1)Cc1c([nH]c3ccccc13)[C@@](C(=O)OC)(c1cc3c(cc1OC)N(C)[C@H]1[C@@](O)(CNC(=O)c4ccc(OC)c(OC)c4)[C@H](OC(C)=O)[C@]4(CC)C=CCN5CC[C@]31[C@@H]54)C2` the figure was 0.0065 µM.
As to `CCCC(=O)NC[C@@]1(O)[C@H](OC(C)=O)[C@]2(CC)C=CCN3CC[C@@]4(c5cc([C@@]6(C(=O)OC)C[C@@H]7C=C(CC)CN(Cc8c6[nH]c6ccccc86)C7)c(OC)cc5N(C)[C@@H]14)[C@@H]32`, it took 0.0173 µM to reach half-maximal inhibition in the data set with A549 [1] (IC50).
The same measure, in the same setting: with `CCCCC(=O)NC[C@@]1(O)[C@H](OC(C)=O)[C@]2(CC)C=CCN3CC[C@@]4(c5cc([C@@]6(C(=O)OC)C[C@@H]7C=C(CC)CN(Cc8c6[nH]c6ccccc86)C7)c(OC)cc5N(C)[C@@H]14)[C@@H]32` the figure was 0.0221 µM.
For `CCC1=C[C@@H]2CN(C1)Cc1c([nH]c3ccccc13)[C@@](C(=O)OC)(c1cc3c(cc1OC)N(C)[C@H]1[C@@](O)(C(=O)OC)[C@H](OC(C)=O)[C@]4(CC)C=CCN5CC[C@]31[C@@H]54)C2` [VINORELBINE], the inhibition in vivo at 9 mg/kg in the data set on A549 [2] turned out to be 55.9%. The compound also had an IC50 in the data set with A549 [1] of 0.009 µM. Further, the Activity with Mus musculus [3] is listed as 26.22 g; in the data set on Mus musculus [4], “Non-toxic”.
Take `CCC1=C[C@@H]2CN(C1)Cc1c([nH]c3ccccc13)[C@@](C(=O)OC)(c1cc3c(cc1OC)N(C)[C@H]1[C@@](O)(CNC(C)=O)[C@H](OC(C)=O)[C@]4(CC)C=CCN5CC[C@]31[C@@H]54)C2`: inhibition with A549 [1] was half-maximal at 0.0245 µM (IC50).
For `CCC1=C[C@@H]2CN(C1)Cc1c([nH]c3ccccc13)[C@@](C(=O)OC)(c1cc3c(cc1OC)N(C)[C@H]1[C@@](O)(CNC(=O)c4ccc(F)cc4)[C@H](OC(C)=O)[C@]4(CC)C=CCN5CC[C@]31[C@@H]54)C2`, in the data set on A549 [1], half-maximal inhibition (IC50) was put at 0.0066 µM.
